In paper PMC4494349, “Epitope Prediction Assays Combined with Validation Assays Strongly Narrows down Putative Cytotoxic T Lymphocyte Epitopes” (Vaccines, 2015):

What was measured:
H-2D^b = target: T1, H-2D^b (Mus musculus, UniProt P01899); assay: MHC class I stabilization assay on RMA-S cells, H-2D^b surface expression; format: cell-based; conditions: for H-2D^b binder class (weak, intermediate, strong) by stabilization of MHC class I on RMA-S cells: 10 μM (Figure 1a), in words; for MHC I Stabilization Assay, fluorescence index class, H-2D^b: RMA-S cells 26 °C 4 h then 37 °C 1 h, flow cytometry
T1 sequence (P01899 25-362): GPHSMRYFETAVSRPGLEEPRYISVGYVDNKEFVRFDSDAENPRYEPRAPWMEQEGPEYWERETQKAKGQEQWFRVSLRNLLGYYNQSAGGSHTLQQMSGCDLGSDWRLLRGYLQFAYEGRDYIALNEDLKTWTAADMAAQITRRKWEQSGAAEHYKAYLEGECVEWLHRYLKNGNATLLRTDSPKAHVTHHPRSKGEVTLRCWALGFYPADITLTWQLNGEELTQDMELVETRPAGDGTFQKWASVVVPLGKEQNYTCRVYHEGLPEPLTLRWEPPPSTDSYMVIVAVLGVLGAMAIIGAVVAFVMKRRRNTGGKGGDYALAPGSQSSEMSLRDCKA
T1 sequence (P01887 21-119 partner): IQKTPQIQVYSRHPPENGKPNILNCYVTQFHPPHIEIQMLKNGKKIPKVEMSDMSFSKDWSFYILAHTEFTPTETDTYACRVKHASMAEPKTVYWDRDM

H-2K^b = target: T2, H-2K^b (Mus musculus, UniProt P01901); assay: MHC class I stabilization assay on RMA-S cells, H-2K^b surface expression; conditions: for MHC I Stabilization Assay, fluorescence index class, H-2K^b: RMA-S cells 26 °C 4 h then 37 °C 1 h, flow cytometry
T2 sequence (P01901 22-369): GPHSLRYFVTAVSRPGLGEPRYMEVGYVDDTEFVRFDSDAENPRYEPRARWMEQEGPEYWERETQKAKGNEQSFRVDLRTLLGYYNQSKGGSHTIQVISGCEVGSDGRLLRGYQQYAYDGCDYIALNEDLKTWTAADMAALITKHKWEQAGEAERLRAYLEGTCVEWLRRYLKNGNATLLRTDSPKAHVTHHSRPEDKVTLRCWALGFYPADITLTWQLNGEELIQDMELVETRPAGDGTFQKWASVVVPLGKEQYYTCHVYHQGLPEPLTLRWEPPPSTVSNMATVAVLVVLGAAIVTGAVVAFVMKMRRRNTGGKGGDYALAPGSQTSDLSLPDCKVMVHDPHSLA
T2 sequence (P01887 21-119 partner): T1 sequence (P01887 21-119 partner)
Description: RMA-S cells were maintained in IMDM (Life Technologies, Bleiswijk, The Netherlands) supplemented with 10% FBS and 100 U/mL penicillin and 100 μg/mL streptomycin (Life Technologies). RMA-S cells were cultured at 26 °C for 48 h to induce expression of MHC class I molecules. Cells were then incubated with various concentrations of synthetic peptides at 26 °C for 4 h, followed by a 1-h culture at 37 °C. […] The surface expression of MHC class I molecules were analyzed by FACSCalibur cytometer (BD Biosciences, Breda, The Netherlands) and data analyzed with FlowJo software (Treestar, Ashland, OR, USA). Fluorescence index was calculated by dividing the median fluorescence intensity (MFI) value of cells incubated with SLPs by the MFI value of cells incubated with equivalent concentration of DMSO.

[1] = synthetic long peptides, peptide concentration 10 μM, FI = MFI peptide / MFI DMSO

AETTVRLRAYMNTPGLPV [NS3_507-524]
H-2D^b binder class (weak, intermediate, strong) by stabilization of MHC class I on RMA-S cells (H-2D^b; synthetic long peptides): strong (>1.5: strong binders (+++)) | MHC I Stabilization Assay, fluorescence index class, H-2D^b (H-2D^b; [1]): +++ (>1.5 +++)

ALGINAVAYYRGLDVSVI [NS3_383-400]
H-2D^b binder class (weak, intermediate, strong) by stabilization of MHC class I on RMA-S cells (H-2D^b; synthetic long peptides): intermediate (0.5–1.5: intermediate binders (++)) | MHC I Stabilization Assay, fluorescence index class, H-2D^b (H-2D^b; [1]): ++ (0.5–1.5 ++)

ATPPGSVTVSHPNIEEVA [NS3_323-340]
H-2D^b binder class (weak, intermediate, strong) by stabilization of MHC class I on RMA-S cells (H-2D^b; synthetic long peptides): weak (0.2–0.5: weak binders (+)) | MHC I Stabilization Assay, fluorescence index class, H-2D^b (H-2D^b; [1]): + (Fluorescence index of H-2D^b: 0.2–0.5 +)

IQMYTNVDQDLVGWPA [NS3_72-87]
H-2D^b binder class (weak, intermediate, strong) by stabilization of MHC class I on RMA-S cells (H-2D^b; synthetic long peptides): weak (0.2–0.5: weak binders (+)) | MHC I Stabilization Assay, fluorescence index class, H-2D^b (H-2D^b; [1]): + (Fluorescence index of H-2D^b: 0.2–0.5 +)

LSQTKQSGENFPYLVAY [NS3_547-563]
H-2D^b binder class (weak, intermediate, strong) by stabilization of MHC class I on RMA-S cells (H-2D^b; synthetic long peptides): intermediate (0.5–1.5: intermediate binders (++)) | MHC I Stabilization Assay, fluorescence index class, H-2D^b (H-2D^b; [1]): ++ (0.5–1.5 ++)

RLGAVQNEVTLTHPITKY [NS3_601-618]
H-2D^b binder class (weak, intermediate, strong) by stabilization of MHC class I on RMA-S cells (H-2D^b; synthetic long peptides): weak (0.2–0.5: weak binders (+)) | MHC I Stabilization Assay, fluorescence index class, H-2D^b (H-2D^b; [1]): + (Fluorescence index of H-2D^b: 0.2–0.5 +)

SIINFEKL [OVA257-264]
Fluorescence index (FI), stabilization of H-2K^b (H-2K^b; short peptides at 100 μM, strong binders): > 8 | plateau of stabilization of H-2K^b molecules (H-2K^b; short peptides, up to high peptide concentration (100 μM)): not detectable | MHC I Stabilization Assay, fluorescence index class, H-2K^b (H-2K^b; short synthetic peptides, serially diluted (Figure 2b)): +++ (>8 +++) | MHC I Stabilization Assay, fluorescence index class, H-2D^b (H-2D^b; short synthetic peptides, serially diluted (Figure 2a)): ++ (0.5–1.5 ++)

VPAAYAAQGYKVLVL [NS3_214-228]
H-2K^b binder class (weak, intermediate, strong) by stabilization of MHC class I on RMA-S cells (H-2K^b; synthetic long peptides, 10 μM (Figure 1b), in words): weak (0.2–2: weak binders (+)) | MHC I Stabilization Assay, fluorescence index class, H-2K^b (H-2K^b; [1]): + (Fluorescence index of H-2K^b: 0.2–2 +) | H-2D^b binder class (weak, intermediate, strong) by stabilization of MHC class I on RMA-S cells (H-2D^b; synthetic long peptides): intermediate (0.5–1.5: intermediate binders (++)) | MHC I Stabilization Assay, fluorescence index class, H-2D^b (H-2D^b; [1]): ++ (0.5–1.5 ++)
